Reference: patent publication US9302999B2, “Substituted triazoles as herbicides” (E. I. DU PONT DE NEMOURS AND COMPANY, priority 2012, dated 2016)

Columns and labels:
Assay type in all cases: in vivo
[1] = tested on: lambsquarters (Chenopodium album); test: Test C pre-/postemergence: lambsquarters
Summary of the method: (§1)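 Visual injury scored 0–100 (100 = complete control) against untreated controls after 13–15 greenhouse days. Surfactant-containing solvent formulations applied either to soil after sowing (loam/sand) or over 1- to 4-leaf plants, 2–18 cm tall.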

[2] = tested on: ragweed (common ragweed, Ambrosia elation); test: Test C pre-/postemergence: ragweed
Summary of the method: as §1

[3] = tested on: galium (catchweed bedstraw, Galium aparine); test: Test C pre-/postemergence: galium
Summary of the method: as §1

kochia (Kochia scoparia) = test: Test C pre-/postemergence: kochia
Summary of the method: as §1

[4] = tested on: barnyardgrass (Echinochloa crus-galli); test: Test A pre-/postemergence: barnyardgrass
Summary of the method: (§2)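 Visual 0–100 injury ratings (0 no effect, 100 complete control) taken about ten days after treatment, relative to untreated controls. Preemergence treatment was a directed soil spray; postemergence plants were 2–10 cm tall at one- to two-leaf stage. Soil: loam/sand blend.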

[5] = tested on: velvetleaf (Abutilon theophrasti); test: Test C pre-/postemergence: velvetleaf
Summary of the method: as §1

[6] = tested on: johnsongrass (Sorghum halepense); test: Test C pre-/postemergence: johnsongrass
Summary of the method: as §1

[7] = tested on: morningglory (Ipomoea spp.); test: Test A pre-/postemergence: morningglory
Summary of the method: as §2

corn (Zea mays) = test: Test A pre-/postemergence: corn
Summary of the method: as §2

rice (Oryza sativa) = test: Test B flooded paddy: rice; conditions: Flood; 125 g ai/ha; applied to paddy water at 2-leaf stage; visually evaluated after 13 to 15 days
Summary of the method: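 Two-leaf-stage plants, pots flooded (3 cm above soil) and treated through the water, which stayed at that depth. After 13–15 days in greenhouse conditions, visual assessment versus controls: 0 is no effect, 100 complete control, dash means no result.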

[8] = Postemergence, 31 g ai/ha, scale 0 to 100 (0 no effect, 100 complete control)
[9] = Postemergence, 62 g ai/ha, scale 0 to 100 (0 no effect, 100 complete control)
[10] = Postemergence, 125 g ai/ha, scale 0 to 100, 0 no effect, 100 complete control
[11] = Postemergence, 250 g ai/ha, scale 0 to 100
[12] = Preemergence, 31 g ai/ha, scale of 0 to 100, 0 is no effect, 100 is complete control
[13] = Preemergence, 62 g ai/ha, scale of 0 to 100, 0 is no effect, 100 is complete control
[14] = Preemergence, 125 g ai/ha, scale 0 to 100, 0 no effect, 100 complete control
[15] = Preemergence, 250 g ai/ha, scale 0 to 100, 0 no effect, 100 complete control
[16] = Postemergence, 125 g ai/ha, 0 to 100 scale, 0 is no effect, 100 is complete control
[17] = Postemergence, 500 g ai/ha, visual rating on 0 to 100 scale (0 no effect, 100 complete control), approximately ten days
[18] = Preemergence, 125 g ai/ha, 0 to 100 scale where 0 is no effect and 100 is complete control
[19] = Preemergence, 500 g ai/ha, 0 to 100 scale (0 no effect, 100 complete control)
[20] = Postemergence, 500 g ai/ha, 0 to 100 scale, 0 is no effect, 100 is complete control

Cc1nn(-c2ccc(C(F)(F)F)cc2)nc1Oc1ccnc(C(F)(F)F)c1 [Compound 120]
Plant response rating, Lambsquarters [1, 8]: 100
Plant response rating, Lambsquarters [1, 9]: 100
Plant response rating, Lambsquarters [1, 10]: 100
Plant response rating, Lambsquarters [1, 11]: 100
Plant response rating, Lambsquarters [1, 12]: 85
Plant response rating, Lambsquarters [1, 13]: 100
Plant response rating, Lambsquarters [1, 14]: 100
Plant response rating, Lambsquarters [1, 15]: 100
Plant response rating, Ragweed [2, 8]: 60
Plant response rating, Ragweed [2, 9]: 60
Plant response rating, Ragweed [2, 10]: 80
Plant response rating, Ragweed [2, 11]: 85
Plant response rating, Ragweed [2, 12]: 0
Plant response rating, Ragweed [2, 13]: 45
Plant response rating, Ragweed [2, 14]: 45
Plant response rating, Ragweed [2, 15]: 65
Plant response rating, Galium [3, 8]: 80
Plant response rating, Galium [3, 9]: 80
Plant response rating, Galium [3, 10]: 85
Plant response rating, Galium [3, 12]: 98
Plant response rating, Galium [3, 13]: 100
Plant response rating, Galium [3, 14]: 100
Plant response rating, Galium [3, 15]: 100
Plant response rating, Kochia (kochia (Kochia scoparia); [8]): 65
Plant response rating, Kochia (kochia (Kochia scoparia); [9]): 95
Plant response rating, Kochia (kochia (Kochia scoparia); [10]): 98
Plant response rating, Kochia (kochia (Kochia scoparia); [11]): 98
Plant response rating, Kochia (kochia (Kochia scoparia); [12]): 10
Plant response rating, Kochia (kochia (Kochia scoparia); [13]): 90
Plant response rating, Kochia (kochia (Kochia scoparia); [14]): 100
Plant response rating, Kochia (kochia (Kochia scoparia); [15]): 100
Barnyardgrass plant response rating [4, 16]: 60
Barnyardgrass plant response rating [4, 17]: 80
Plant response rating, Barnyardgrass [4, 18]: 90
Plant response rating, Barnyardgrass [4, 19]: 100
Plant response rating, Velvetleaf [5, 8]: 20
Plant response rating, Velvetleaf [5, 9]: 45
Plant response rating, Velvetleaf [5, 10]: 55
Plant response rating, Velvetleaf [5, 11]: 65
Plant response rating, Velvetleaf [5, 12]: 5
Plant response rating, Velvetleaf [5, 13]: 15
Plant response rating, Velvetleaf [5, 14]: 35
Plant response rating, Velvetleaf [5, 15]: 100
Plant response rating, Johnsongrass [6, 8]: 0
Plant response rating, Johnsongrass [6, 9]: 5
Plant response rating, Johnsongrass [6, 10]: 25
Plant response rating, Johnsongrass [6, 11]: 45
Plant response rating, Johnsongrass [6, 12]: 25
Plant response rating, Johnsongrass [6, 13]: 80
Plant response rating, Johnsongrass [6, 14]: 95
Plant response rating, Johnsongrass [6, 15]: 98
Morningglory plant response rating [7, 16]: 90
Morningglory plant response rating [7, 17]: 100
Plant response rating, Morningglory [7, 18]: 10
Plant response rating, Morningglory [7, 19]: 30
Corn plant response rating (corn (Zea mays); [16]): 20
Corn plant response rating (corn (Zea mays); [17]): 50
Plant response rating, Corn (corn (Zea mays); [18]): 20
Plant response rating, Corn (corn (Zea mays); [19]): 30

CCOCc1nn(-c2ccc(F)cc2)nc1Oc1ccnc(C(F)(F)F)c1 [Compound 163]
Plant response rating, Ragweed [2, 12]: 0
Plant response rating, Ragweed [2, 13]: 10
Plant response rating, Ragweed [2, 14]: 20
Plant response rating, Ragweed [2, 15]: 35
Plant response rating, Rice (0 to 100 scale, 0 is no effect, 100 is complete control) (rice (Oryza sativa)): 15
Plant response rating, Galium [3, 12]: 0
Plant response rating, Galium [3, 13]: 5
Plant response rating, Galium [3, 14]: 5
Plant response rating, Galium [3, 15]: 75
Plant response rating, Barnyardgrass [4, 16]: 70
Barnyardgrass plant response rating [4, 20]: 100
Plant response rating, Barnyardgrass [4, 18]: 90
Plant response rating, Barnyardgrass [4, 19]: 100
Plant response rating, Velvetleaf [5, 12]: 0
Plant response rating, Velvetleaf [5, 13]: 10
Plant response rating, Velvetleaf [5, 14]: 20
Plant response rating, Velvetleaf [5, 15]: 75
Plant response rating, Johnsongrass [6, 12]: 30
Plant response rating, Johnsongrass [6, 13]: 35
Plant response rating, Johnsongrass [6, 14]: 60
Plant response rating, Johnsongrass [6, 15]: 60
Plant response rating, Morningglory [7, 16]: 30
Morningglory plant response rating [7, 20]: 80
Plant response rating, Morningglory [7, 18]: 10
Plant response rating, Morningglory [7, 19]: 30
Plant response rating, Corn (corn (Zea mays); [16]): 20
Corn plant response rating (corn (Zea mays); [20]): 30
Plant response rating, Corn (corn (Zea mays); [18]): 0
Plant response rating, Corn (corn (Zea mays); [19]): 10
